Measurements: patent EP4635958A1, “PYRIMIDINE-CONTAINING POLYCYCLIC DERIVATIVE INHIBITOR, AND PREPARATION METHOD THEREFOR AND USE THEREOF” (Shanghai Hansoh Biomedical Co., Ltd., priority 2022, dated 2024)
Where two headings read alike, the source gives them in different places.

Key:
[1] = system: GP2D; experiment: Inhibition of proliferation of KRAS G12D mutant tumor cell line GP2D (CellTiter-Glo); conditions: read-out: GP2D IC50
[2] = Pharmacokinetic determination in rats (IV and PO, plasma, LCMS/MS); format: in vivo, SD rats; conditions: male SD rats; for AUC(0-inf): read-out: AUCo-∞; for half-life: read-out: T1/2 (converted); for F: PO 30 mg/kg vs IV 1 mg/kg
Protocol: SD rats were used as test animals to study the pharmacokinetic behavior of the example compounds in rats (plasma) after oral administration.
The example compounds of the present invention, made in house.
3 SD rats per group, male. Shanghai Jiesijie Experimental Animal Co., Ltd., animal production license number (SCXK (Shanghai) 2013-0006 N0.311620400001794).
Formulation of a drug for oral administration: 10% Captisol in 50 mM citrate buffer pH 5.0.
(§1) Formulation of 50 mM citric acid: 4.8 g of citric acid was weighed into a 1000 ml glass bottle, ultrapure water was added to 300 ml, and the mixture was magnetically stirred until completely dissolved, additional ultrapure water was then added to 500 ml to formulate 50 mM citric acid.
(§2) Formulation of a solution containing 50 mM citric acid (10% Captisol, PH = 5): 50 g of Captisol powder was weighed and added to a 1000 ml glass bottle, 300 ml of 50 mM citric acid was added, and the mixture was magnetically stirred until completely dissolved, then additional citric acid was added to 500 ml, and the PH was adjusted to 5 using 10 M NaOH.
The example compounds were weighed and dissolved in the solution and the mixture was shaken well and subjected to ultrasound treatment for 15 min to obtain a colorless clear solution with a concentration of 3 mg/mL.
(§3) Formulation of a drug for intravenous administration: 5%DMSO+10%Solutol HS15+85%PBS.
(§4) The example compounds were weighed, and 5% DMSO was added according to the total administration volume; the mixture was vortexed and sonicated for 2 min to ensure complete dissolution; then, 10% Solutol HS15 was added, and the mixture was vortexed and sonicated for 2 min to achieve complete dissolution; finally, 85% PBS was added, and the mixture was vortexed and sonicated for 5 min; the obtained mixture was filtered through a 0.22 um membrane to obtain a colorless, transparent, and clear solution with a concentration of 0.2 mg/mL.
3 SD rats per group, male; After overnight fasting, the animals were administered orally (PO) at a dose of 30 mg/kg with an administration volume of 10 mL/kg.
3 SD rats per group, male; After overnight fasting, the animals were administered intravenously (IV) at a dose of 1 mg/kg with an administration volume of 5 mL/kg.
0.2 mL of blood was collected from the jugular vein before administration and at 0.25 h, 0.5 h, 1.0 h, 2.0 h, 4.0 h, 6.0 h, 8.0 h, and 24.0 h after administration and placed in an EDTA-2K test tube, and the test tube was centrifuged at 6000 rpm for 6 min at 4°C to separate the plasma, which was stored at -20°C. the animals were fed 4 h after administration.
The final determination results obtained by applying the LCMS/MS method are shown in the table below: Table 8: Pharmacokinetic parameters of the compounds administered intravenously in rats

[3] = Plasma stability test, mouse plasma; format: in vitro ADME; conditions: mouse, plasma;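 further: test compound quantified by LC-MS using positive-mode electrospray ionization and MRM scanning, with an internal standard added in acetonitrile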
Protocol: (§5) Liquid chromatography-mass spectrometer, centrifuge, vortexer, pipette, continuous dispenser, 96-well plate, 50% methanol aqueous solution, acetonitrile solution containing internal standard, blank matrix (plasma of rat, dog, or human), Propantheline (propantheline bromide), Mevinolin (lovastatin), and test compound.
(§6) After whole blood was collected from animals or humans, it was placed in a test tube containing an anticoagulant and centrifuged at 3500 rpm for 10 min to collect the upper pale yellow plasma.
(§7) The compound was weighed and the stock solution was formulated with DMSO and the working solution was formulated with 100 mM phosphate buffer.
(§8) • Instrument: API4000 liquid chromatography-mass spectrometer, AB Company, USA; • the ion source was electrospray ionization source (ESI); • drying gas (N2) temperature was 500°C; • electrospray voltage was 5500V; • the detection method was positive ion detection; • the scanning method was selected reaction monitoring (MRM); • the scanning time was 0.1s.

[4] = Plasma stability test, dog plasma; format: in vitro ADME; conditions: dog, plasma;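 further: parent compound left in dog plasma quantified by LC-MS with positive electrospray ionization, selected reaction monitoring and an internal standard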
Protocol: as §5, §6, §7, §8

[5] = Plasma stability test, human plasma; format: in vitro ADME; conditions: human, plasma;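 further: test compound incubated in human plasma, quantified by LC-MS/MS (positive-ion ESI, MRM) against an internal standard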
Protocol: as §5, §6, §7, §8

[6] = Pharmacokinetic determination in mice (IV and PO, plasma, LCMS/MS); format: in vivo, Balb/c mice; conditions: for half-life: read-out: T1/2 (converted)
From the text: • 1. Study objective: Balb/c mice were used as test animals to study the pharmacokinetic behavior of the compounds in mice (plasma) after oral administration. • 2. Test scheme • 2.1 Test drugs: The example compounds of the present invention, made in house; • 2.2 Test animals: Balb/c mice, male, purchased from Shanghai Jiesijie Experimental Animal Co., Ltd., animal production license number (SCXK (Shanghai) 2013-0006 N0.311620400001794). • 2.3 Drug formulation: Formulation of a drug for oral administration: 10% Captisol in 50 mM citrate buffer pH 5.0.
as §1, §2
The example compounds were weighed and added to a 4 mL glass bottle separately, 2.4 mL of the solution was added and the mixture was subjected to ultrasound treatment for 10 min to obtain a colorless clear solution with a concentration of 3 mg/mL.
as §3, §4
3 Balb/c mice, male; After overnight fasting, the animals were administered orally (PO) at a dose of 30 mg/kg with an administration volume of 10 mL/kg.
3 Balb/C mice, male; After overnight fasting, the animals were administered intravenously (IV) at a dose of 1 mg/kg with an administration volume of 5 mL/kg.
0.04 mL of blood was collected from the orbit before administration and at 0.25 h, 0.5 h, 1 h, 2 h, 4 h, 6 h, 8 h, and 24 h after administration and placed in an EDTA-2K test tube, and the test tube was centrifuged at 6000 rpm for 6 min at 4°C to separate the plasma, which was stored at -20°C; the animals were fed 4 h after administration.
The final determination results obtained by applying the LCMS/MS method are shown in the table below: Table 6: Pharmacokinetic parameters of the compounds administered intravenously in mice

[7] = rat, in vivo, PO, 30 mg/kg, overnight fasting, plasma
[8] = rat, in vivo, PO, 30 mg/kg, overnight fasting, plasma, read-out: Cmax
[9] = rat, in vivo, PO, 30 mg/kg, overnight fasting, plasma, read-out: Tmax
[10] = IV, 1 mg/kg, overnight fasting, plasma
[11] = PO, 30 mg/kg, overnight fasting, plasma
[12] = rat, in vivo, IV, 1 mg/kg, overnight fasting, plasma

## [2H]C([2H])([2H])[C@@H]1Oc2nc(-c3cc(O)cc4ccc(F)c(C#C)c34)c(F)c3nc(OC([2H])([2H])C4(C([2H])([2H])N5CCC(=CF)CC5)CC4)nc(c23)N2C[C@H]3CC[C@H](N3)[C@@H]12 [Example 298]
[1]; Homo sapiens, GP2d, 72 h
  IC50: 0.28 nM

## C#Cc1c(F)ccc2cc(O)cc(-c3nc4c5c(nc(OCC6(CN7CC8CCC7CC8=NOC)CC6)nc5c3F)N3C[C@H]5CC[C@H](N5)[C@H]3[C@H](C)O4)c12 [Example 345]
[1]; Homo sapiens, GP2d, 72 h
  IC50: 0.18 nM

## C#Cc1c(F)ccc2cc(O)cc(-c3nc4c5c(nc(OCC6(CN7CCC(=NOC)C8(CC8)C7)CC6)nc5c3F)N3C[C@H]5CC[C@H](N5)[C@H]3[C@H](C)O4)c12 [Example 342, 5-((1-((((5S,5aS,6S,9R)-2-(8-ethynyl-7-fluoro-3-hydroxynaphthalen-1-yl)-1-fluoro-5-methyl-5a,6,7,8,9,10-hexahydro-5H-4-oxa-3,10a,11,13,14-pentaaza-6,9-methylnaphtho[1,8-ab]heptene-12-yl)oxy)methyl)cyclopropyl)methyl)-5-azaspiro[2.5]octan-8-one O-methyloxime]
[1]; Homo sapiens, GP2d, 72 h
  IC50: 0.41 nM

## C#Cc1c(F)ccc2cc(O)cc(-c3nc4c5c(nc(OCC6(CN7CC8CC(=C(F)F)CC8C7)CC6)nc5c3F)N3C[C@H]5CC[C@H](N5)[C@H]3[C@H](C)O4)c12 (stereo partly drawn) [Example 133]
[2]; [7]
  AUC(0-inf): 6510 ng·h/mL
  half-life: 7 h
[2]; [8]
  Cmax: 588 ng/mL
[2]; [9]
  Tmax: 4 h
[1]; Homo sapiens, GP2d, 72 h
  IC50: 0.53 nM

## C#Cc1c(F)ccc2cc(O)cc(-c3nc4c5c(nc(OCC6(CN7CCCC(=C(F)F)CC7)CC6)nc5c3F)N3C[C@H]5CC[C@H](N5)[C@H]3[C@H](CC)O4)c12 [Example 140]
[2]; [7]
  AUC(0-inf): 2280 ng·h/mL
  half-life: 11 h
[2]; [8]
  Cmax: 118 ng/mL
[2]; [9]
  Tmax: 2 h
[1]; Homo sapiens, GP2d, 72 h
  IC50: 0.79 nM

## C#Cc1c(F)ccc2cc(O)cc(-c3nc4c5c(nc(OCC6(CN7C8CCC7CC(=C(F)F)C8)CC6)nc5c3F)N3C[C@H]5CC[C@H](N5)[C@H]3[C@H](C)O4)c12 [Example 134]
[1]; Homo sapiens, GP2d, 72 h
  IC50: 1 nM

## C#Cc1c(F)ccc2cc(O)cc(-c3nc4c5c(nc(OCC6(CN7CC8CC(=C(F)F)CC8C7)CC6)nc5c3F)N3C[C@H]5CC[C@H](N5)[C@H]3[C@H](CC)O4)c12 (stereo partly drawn) [Example 141]
[2]; [7]
  AUC(0-inf): 17300 ng·h/mL
  half-life: 18.9 h
[2]; [8]
  Cmax: 869 ng/mL
[2]; [9]
  Tmax: 2 h
[1]; Homo sapiens, GP2d, 72 h
  IC50: 0.94 nM

## CC[C@@H]1Oc2nc(-c3cc(N)cc(Cl)c3C(F)(F)F)c(F)c3nc(OCC4(CN5CCC(=CF)CC5)CC4)nc(c23)N2C[C@@H]3CC[C@@H](N3)[C@@H]12 [Example 322, 3-chloro-5-((5S,5aS,6R,9S)-5-ethyl-1-fluoro-12-((1-((4-(fluoromethylene)piperidin-1-yl)methyl)cyclopropyl)methoxy)-5a,6,7,8,9,10-hexahydro-5H-4-oxa-3,10a,11,13,14-pentaaza-6,9-methylnaphtho[1,8-ab]hept-2-yl)-4-(trifluoromethyl)aniline]
[2]; [10]
  AUCo-∞: 219 ng·h/mL
  C0: 326 ng/mL
  CL: 76.2 mL/min/kg
  T1/2: 11.6 h
[2]
  F: 10%
[2]; [11]
  AUCo-∞: 694 ng·h/mL
  Cmax: 40 ng/mL
  T1/2: 10.4 h
  Tmax: 6.0 h
[1]; proliferation, about 72 h, CellTiter-Glo
  IC50: 0.61 nM

## CC(C)[N+](C)(CCOC(=O)C1c2ccccc2Oc2ccccc21)C(C)C [Propantheline bromide, propantheline bromide, reference compound]
[3]
  half-life: 0.462 h
[3]; 0 h
  Remaining rate (%) 0 min: 100.00%
[3]; 0.25 h
  Remaining rate (%) 15 min: 79.79%
[3]; 0.5 h
  Remaining rate (%) 30 min: 48.66%
[3]; 1 h
  Remaining rate (%) 60 min: 23.39%
[3]; 2 h
  Remaining rate (%) 120 min: 6.66%
[4]
  half-life: 1.34 h
[4]; 0 h
  Remaining rate (%) 0 min: 100.00%
[4]; 0.25 h
  Remaining rate (%) 15 min: 95.25%
[4]; 0.5 h
  Remaining rate (%) 30 min: 95.45%
[4]; 1 h
  Remaining rate (%) 60 min: 75.66%
[4]; 2 h
  Remaining rate (%) 120 min: 36.25%
[5]
  half-life: 0.27 h
[5]; 0 h
  Remaining rate (%) 0 min: 100.00%
[5]; 0.25 h
  Remaining rate (%) 15 min: 26.78%
[5]; 0.5 h
  Remaining rate (%) 30 min: 5.05%
[5]; 1 h
  Remaining rate (%) 60 min: 0.25%
[5]; 2 h
  Remaining rate (%) 120 min: 0.05%

## C#Cc1c(F)ccc2cc(O)cc(-c3nc4c5c(nc(OCC6(CN7CCC(=C(F)F)CC7)CC6)nc5c3F)N3C[C@H]5CC[C@H](N5)[C@H]3[C@H](CC)O4)c12 [Example 124, 4-((5S,5aS,6S,9R)-12-((1-((4-(difluoromethylene)piperidin-1-yl)methyl)cyclopropyl)methoxy)-5-ethyl-1-fluoro-5a,6,7,8,9,10-hexahydro-5H-4-oxa-3,10a,11,13,14-pentaaza-6,9-methylnaphtho[1,8-ab]hept-2-yl)-5-ethynyl-6-fluoronaphthalen-2-ol]
[6]; PO 30 mg/kg vs IV 1 mg/kg, male Balb/c mice
  F: 23%
[6]; mouse, in vivo, Balb/c mice, intravenously (IV), 1 mg/kg, plasma, read-out: AUCo-∞
  AUC(0-inf): 374 ng·h/mL
[6]; mouse, in vivo, Balb/c mice, intravenously (IV), 1 mg/kg, plasma, read-out: C0
  C0: 412 ng/mL
[6]; mouse, in vivo, Balb/c mice, intravenously (IV), 1 mg/kg, plasma, read-out: CL
  clearance: 44.6 mL/min/kg
[6]; mouse, in vivo, Balb/c mice, intravenously (IV), 1 mg/kg, plasma
  half-life: 11.5 h
[6]; mouse, in vivo, PO, 30 mg/kg, male Balb/c mice, overnight fasting, plasma, read-out: AUC0-∞
  AUC(0-inf): 2610 ng·h/mL
[6]; mouse, in vivo, PO, 30 mg/kg, male Balb/c mice, overnight fasting, plasma, read-out: Cmax
  Cmax: 391 ng/mL
[6]; mouse, in vivo, PO, 30 mg/kg, male Balb/c mice, overnight fasting, plasma
  half-life: 6.6 h
[6]; mouse, in vivo, PO, 30 mg/kg, male Balb/c mice, overnight fasting, plasma, read-out: Tmax
  Tmax: 1 h
[2]
  F: 18%
[2]; [12]
  AUC(0-inf): 1110 ng·h/mL
  half-life: 9 h
[2]; rat, in vivo, IV, 1 mg/kg, overnight fasting, plasma, read-out: C0
  C0: 524 ng/mL
[2]; rat, in vivo, IV, 1 mg/kg, overnight fasting, plasma, read-out: CL
  clearance: 15 mL/min/kg
[2]; [7]
  AUC(0-inf): 6170 ng·h/mL
  half-life: 6.8 h
[2]; [8]
  Cmax: 471 ng/mL
[2]; [9]
  Tmax: 6 h
[1]; Homo sapiens, GP2d, 72 h
  IC50: 0.98 nM
